≈ marks a conversion by molar mass, not a printed value. Marks after values point to notes of the source that are not given here. Non-standard residues stand in square brackets, D forms with d. Residues, ends and D or L forms follow the SMILES beside them. PEG2000 = polyethylene glycol 2000, conjugated to the N-terminus; PEG4000 = polyethylene glycol 4000, conjugated to the C-terminus; PEG200 = polyethylene glycol 200, conjugated to the C-terminus; PEG500 = polyethylene glycol 500, conjugated to the C-terminus; Phe(3,4-Cl2) = N[C@@H](Cc1ccc(Cl)c(Cl)c1)C(=O)O; Phe(3,4-F2) = N[C@@H](Cc1ccc(F)c(F)c1)C(=O)O; Phe(4-Cl) = N[C@@H](Cc1ccc(Cl)cc1)C(=O)O; Phe(4-F) = N[C@@H](Cc1ccc(F)cc1)C(=O)O; 2Nal = N[C@@H](Cc1ccc2ccccc2c1)C(=O)O; PEG1000 = polyethylene glycol 1000 Bounds are passed on as bounds.

Data set [1] deals with rabbit red blood cells. Format: cell-based. The note with it: red cells of rabbit, 1 h. On the procedure:
Fresh rabbit blood ([…]) was collected and centrifuged at 500 g for 5 min, a supernatant was discarded, and red blood cells were repeatedly washed with phosphate-buffered saline (PBS, 0.01 M, pH 7.4) until the supernatant was clear. The red blood cells (RBCs) were resuspended to 10 mL, and diluted 25-fold with PBS (0.01 M, pH 7.4) to prepare a red blood cell suspension with a concentration of about 2×10^8 RBC/mL. The AMPs were subjected to gradient dilution with normal saline (0.85%, w/v, NaCl) according to a multiple dilution method, final concentrations of the SMPs were 1.95, 3.9, 7.8, 15.6, 31.3, 62.5, 125, 250, 500, 1000, and 2000 μg/mL. 100 μl of polypeptide solution was taken and added to a 96-well plate with 5 replicates for each concentration; 100 μl of rabbit blood with a red blood cell count of about 2×10^8 RBC/mL was then added to each well, the plate was incubated at 37° C. for 1 h, centrifuged at 500 g for 5 min, 100 μl of supernatant was taken and transferred to a new 96-well plate, and an optical density (OD) at a wavelength of 541 nm was measured using a microplate reader. Triton X-100 (10 mg/mL as a starting concentration, two-fold gradient dilution) was used as a positive control group. A hemolysis rate was calculated using the following formula: Hemolysis rate (%)=[(OD541 of experimental group-OD541 of negative control group)/(OD541 of positive control group−OD541 of negative control group)]×100% Specific results of the hemolysis test are shown in Table 6. Minimum hemolytic concentration (MHC): a lowest drug concentration that can cause 10% hemolysis.

Data set [2] has as its system Staphylococcus aureus (NRS 384). Description: microbe, parasite or virus in culture. Type of data set: cell-based. An excerpt:
According to the Standards of Clinical and Laboratory Standards Institute (CLSI) of the USA for antimicrobial drug susceptibility test operation standards, a micronutrient serial twofold dilution method was used to determine minimum inhibitory concentrations (MICs) of all 60 peptides (S/N: LV-1˜LV-60) against Staphylococcus aureus (NRS 384). The experiment was repeated 5 times in parallel. […] An antibacterial drug Levofloxacin and an AMP Cbf-K16 (sequence of Cbf-K16: […]) were used as positive controls to evaluate the antibacterial effect of the antimicrobial peptides on Staphylococcus aureus (NRS 384).

Data set [3] has as its system Escherichia coli ATCC 25922. Put plainly: Oral formulations on mice with systemic bacterial infection. Format: in vivo, ICR mice. As to conditions: 5 mg/kg gavage, three times a day for 7 days, n = 10. On the procedure: Both female and male ICR mice were used in the test, half of the female and male mice were taken and randomly assigned into groups, with 10 mice in each group, and kept in separate cages. The mice were divided into a blank control group, a negative control group, a positive control Levofloxacin group, and AMPs LV-1 to LV-30 groups. An Escherichia coli ATCC 25922 bacterial suspension was prepared, a concentration of the suspension was adjusted 1×10^7 CFU/mL for subsequent use. Except for the blank control group, all other mice were injected with the Escherichia coli suspension (0.2 mL, 1×10^7 CFU/mL), into abdominal cavity of the mice, to establish a model. After the model was successfully established, the mice were given drug immediately according to their body weights. Except for the blank control group and the negative control group, the mice in all other groups were gavaged with different compounds, three times a day for 7 consecutive days. The mice were then observed for 14 d. The death of mice in each group was observed, and survival time of the mice was recorded. Results of the effect of the oral formulations of AMPs LV-1 to LV-30 on the survival time of mice infected with Escherichia coli are shown in Table 11.

Data set [4] deals with Pseudomonas aeruginosa ATCC 27853. Description: Injectable formulations on mice infected with peritonitis. The note with it: 5 mg/kg via tail vein, twice a day for 3 days, n = 10. Format: in vivo, ICR mice. On the procedure:
Both female and male ICR mice were used in the test, half of the female and male mice were taken and randomly assigned into groups, with 10 mice in each group, and kept in separate cages. The mice were divided into a blank control group, a negative control group, a positive control Levofloxacin group, and AMPs LV-1 to LV-30 groups. A bacterial suspension of Pseudomonas aeruginosa ATCC 27853 was prepared, a concentration of the suspension was adjusted 1×10^9 CFU/mL for subsequent use. Except for the blank control group, all other mice were injected with the bacterial suspension (0.2 mL, 1×10^9 CFU/mL), into abdominal cavity of the mice, to establish a model. After the model was successfully established, the mice were given drug immediately according to their body weights. Except for the blank control group and the negative control group, the mice in all other groups were administered the corresponding injectable formulations via tail vein, twice a day for 3 consecutive days. The mice were then observed for 14 d. The death of mice in each group was observed, and survival time of the mice was recorded. Results of the effect of the injectable formulations of AMPs LV-1 to LV-30 on the survival time of mice infected with Pseudomonas aeruginosa are shown in Table 10.

[5] abbreviates: Staphylococcus aureus (NRS 384).

As for `CC(=O)N[C@@H](CCCNC(=N)N)C(=O)N[C@@H](CCCNC(=N)N)C(=O)N[C@@H](CC(C)C)C(=O)N[C@@H](CC(C)C)C(=O)N[C@@H](Cc1ccc2ccccc2c1)C(=O)N[C@@H](CCCNC(=N)N)C(=O)N[C@@H](CC(C)C)C(=O)N[C@@H](CCCNC(=N)N)C(=O)N[C@@H](Cc1ccc2ccccc2c1)C(=O)N[C@@H](CCCNC(=N)N)C(=O)N[C@@H](CCCNC(=N)N)C(N)=O` [LV-31] (Ac-RRLL[2Nal]RLR[2Nal]RR-NH2), the “MHC (minimum hemolytic concentration, lowest concentration causing 10% hemolysis)” value in data set [1] was over 1000 µg/mL. In data set [2] (NRS 384), the “MIC against Staphylococcus aureus (NRS 384)” value (“MIC … (NRS 384)” for short) turned out to be 4 µg/mL (≈ 2.31 µM).

For the molecule `CC(=O)N[C@@H](CCCNC(=N)N)C(=O)N[C@@H](CCCCN)C(=O)N[C@@H](CC(C)C)C(=O)N[C@@H](CC(C)C)C(=O)N[C@@H](Cc1ccccc1)C(=O)N[C@@H](CCCNC(=N)N)C(=O)N[C@@H](CC(C)C)C(=O)N[C@@H](CCCCN)C(=O)N[C@@H](Cc1ccc2ccccc2c1)C(=O)N[C@@H](CCCNC(=N)N)C(=O)N[C@@H](CCCCN)C(N)=O` [LV-33] (Ac-RKLLFRLK[2Nal]RK-NH2), the “MHC (minimum hemolytic concentration, lowest concentration causing 10% hemolysis)” value in data set [1] is over 1000 µg/mL. In addition, the “MIC … (NRS 384)” value in data set [2] (NRS 384) is 8 µg/mL (≈ 5.01 µM).

As for `CC(=O)N[C@@H](CCCNC(=N)N)C(=O)N[C@@H](CCCCN)C(=O)N[C@@H](CC(C)C)C(=O)N[C@@H](CC(C)C)C(=O)N[C@@H](Cc1ccc2ccccc2c1)C(=O)N[C@@H](CCCNC(=N)N)C(=O)N[C@@H](CC(C)C)C(=O)N[C@@H](CCCCN)C(=O)N[C@@H](Cc1ccccc1)C(=O)N[C@@H](CCCNC(=N)N)C(=O)N[C@@H](CCCCN)C(N)=O` [LV-34] (Ac-RKLL[2Nal]RLKFRK-NH2), the “MHC (minimum hemolytic concentration, lowest concentration causing 10% hemolysis)” value in data set [1] was over 1000 µg/mL. Besides, the “MIC … (NRS 384)” value in data set [2] (NRS 384) came to 4 µg/mL (≈ 2.51 µM).

For the molecule `CC(=O)N[C@@H](CCCNC(=N)N)C(=O)N[C@@H](CCCCN)C(=O)N[C@@H](CC(C)C)C(=O)N[C@@H](CC(C)C)C(=O)N[C@@H](Cc1ccc(F)cc1)C(=O)N[C@@H](CCCCN)C(=O)N[C@@H](CC(C)C)C(=O)N[C@@H](CCCCN)C(=O)N[C@@H](Cc1ccc(F)cc1)C(=O)N[C@@H](CCCCN)C(=O)N[C@@H](CCCNC(=N)N)C(N)=O` [LV-35] (Ac-RKLL[Phe(4-F)]KLK[Phe(4-F)]KR-NH2), in data set [1], the “MHC (minimum hemolytic concentration, lowest concentration causing 10% hemolysis)” value was over 1000 µg/mL. Moreover, in data set [2] (NRS 384), the “MIC … (NRS 384)” value is 8 µg/mL (≈ 5.15 µM).

In the case of `CC(=O)N[C@@H](CCCNC(=N)N)C(=O)N[C@@H](CCCCN)C(=O)N[C@@H](CC(C)C)C(=O)N[C@@H](CC(C)C)C(=O)N[C@@H](Cc1ccc(F)c(F)c1)C(=O)N[C@@H](CCCCN)C(=O)N[C@@H](CC(C)C)C(=O)N[C@@H](CCCCN)C(=O)N[C@@H](Cc1ccc(F)c(F)c1)C(=O)N[C@@H](CCCCN)C(=O)N[C@@H](CCCNC(=N)N)C(N)=O` [LV-36] (Ac-RKLL[Phe(3,4-F2)]KLK[Phe(3,4-F2)]KR-NH2), the “MHC (minimum hemolytic concentration, lowest concentration causing 10% hemolysis)” value in data set [1] was over 1000 µg/mL. For the same molecule, the “MIC … (NRS 384)” value in data set [2] (NRS 384) came out at 4 µg/mL (≈ 2.52 µM).

As for `CC(=O)N[C@@H](CCCNC(=N)N)C(=O)N[C@@H](CCCCN)C(=O)N[C@@H](CC(C)C)C(=O)N[C@@H](CC(C)C)C(=O)N[C@@H](Cc1ccc(Cl)cc1)C(=O)N[C@@H](CCCCN)C(=O)N[C@@H](CC(C)C)C(=O)N[C@@H](CCCCN)C(=O)N[C@@H](Cc1ccc(Cl)cc1)C(=O)N[C@@H](CCCCN)C(=O)N[C@@H](CCCNC(=N)N)C(N)=O` [LV-37] (Ac-RKLL[Phe(4-Cl)]KLK[Phe(4-Cl)]KR-NH2), the “MHC (minimum hemolytic concentration, lowest concentration causing 10% hemolysis)” value in data set [1] was over 1000 µg/mL. The “MIC … (NRS 384)” value in data set [2] (NRS 384) was found to be 4 µg/mL (≈ 2.52 µM).

With `CC(=O)N[C@@H](CCCNC(=N)N)C(=O)N[C@@H](CCCCN)C(=O)N[C@@H](CC(C)C)C(=O)N[C@@H](CC(C)C)C(=O)N[C@@H](Cc1ccc(Cl)c(Cl)c1)C(=O)N[C@@H](CCCCN)C(=O)N[C@@H](CC(C)C)C(=O)N[C@@H](CCCCN)C(=O)N[C@@H](Cc1ccc(Cl)c(Cl)c1)C(=O)N[C@@H](CCCCN)C(=O)N[C@@H](CCCNC(=N)N)C(N)=O` [LV-38] (Ac-RKLL[Phe(3,4-Cl2)]KLK[Phe(3,4-Cl2)]KR-NH2), the “MHC (minimum hemolytic concentration, lowest concentration causing 10% hemolysis)” value in data set [1] was over 1000 µg/mL. Besides, the “MIC … (NRS 384)” value in data set [2] (NRS 384) worked out at 8 µg/mL (≈ 4.83 µM).

On to `C[C@H]1COc2c(N3CCN(C)CC3)c(F)cc3c(=O)c(C(=O)O)cn1c23` [Levofloxacin, reference compound], for which, in data set [2] (Staphylococcus aureus (NRS 384), read-out: MIC against Staphylococcus aureus (NRS 384)), the MIC worked out at 1 µg/mL (≈ 2.77 µM). In addition, in data set [3], the “Number of mice that died on each day after infection: day 4” value is 2 Mouse, the “Number of mice that died on each day after infection: day 5” value is reported as 2 Mouse, the “Number of mice that died on each day after infection: day 6” value was 1 Mouse and the “Number of mice that died on each day after infection: day 7” value is recorded as 1 Mouse. Further, the “Number of mice that died on each day after infection: day 8” value in data set [3] is on record as 1 Mouse. For the same molecule, the “Average survival times (Days)” value in data set [3] (observed for 14 d) is on record as 8.1* Days. In data set [4], the “Number of mice that died on each day after infection: day 1” value is recorded as 3 Mouse, the “Number of mice that died on each day after infection: day 2” value is 1 Mouse, the “Number of mice that died on each day after infection: day 3” value is reported as 1 Mouse and the “Number of mice that died on each day after infection: day 4” value is reported as 1 Mouse. Also, the “Number of mice that died on each day after infection: day 5” value in data set [4] was 1 Mouse. In data set [4] (observed for 14 d), the “Average survival times (Days)” value is reported as 5.9* Days.

For “Ac-RKLLXRLKXRK-PEG200 [LV-56] (Ac-RKLL[2Nal]RLK[2Nal]RK-PEG200) [polyethylene glycol 200 conjugated to C-terminal; X=3-(2-naphthyl)-alanine]”, in data set [2] (setting [5]), the “MIC … (NRS 384)” value was determined as 4 µg/mL.

“Ac-RKLLXRLKXRK-PEG500 [LV-57] (Ac-RKLL[2Nal]RLK[2Nal]RK-PEG500) [polyethylene glycol 500 conjugated to C-terminal; X=3-(2-naphthyl)-alanine]”: in data set [2] (setting [5]), the “MIC … (NRS 384)” value is 8 µg/mL.

As to “Ac-RKLLXRLKXRK-PEG1000 [LV-58] (Ac-RKLL[2Nal]RLK[2Nal]RK-PEG1000) [polyethylene glycol 1000 conjugated to C-terminal; X=3-(2-naphthyl)-alanine]”, the “MIC … (NRS 384)” value in data set [2] (setting [5]) stood at 4 µg/mL.

For “Ac-RKLLXRLKXRK-PEG4000 [LV-60] (Ac-RKLL[2Nal]RLK[2Nal]RK-PEG4000) [polyethylene glycol 4000 conjugated to C-terminal; X=3-(2-naphthyl)-alanine]”, the “MIC … (NRS 384)” value in data set [2] (setting [5]) was determined as 8 µg/mL.

For “PEG2000-RKLLXRLKXRK-NH2 [LV-59] (PEG2000-RKLL[2Nal]RLK[2Nal]RK-NH2) [polyethylene glycol 2000 conjugated to N-terminal; X=3-(2-naphthyl)-alanine]”, in data set [2] (setting [5]), the “MIC … (NRS 384)” value is 4 µg/mL.

(Values after patent US20250304620A1, “ANTIMICROBIAL PEPTIDE AND APPLICATION THEREOF” (priority 2023, published 2025).)
